Converted amounts (≈) assume the structure as drawn. “Also recorded” adds a separate entry of the source.
What was measured:
[1] = test system: murine frontal cortex networks; test: Acute effects on cortical network activity (spike rate), MEA-neurochip multichannel recording; type: cell-based, mice
Protocol: Purpose of this example was the evaluation of the acute neuroactive effects of vicenin 2 (named AUC-V) and of Perilla extract (named AUC-P) comprising and standardized on Vicenin 2 on the neuronal activity of murine frontal cortex networks in vitro by means of electrophysiological multi-channel recordings. In this system, cells or tissues are grown directly on the chip surface and communicate via chemical and electrical signals. The MEA-neurochip allows the non-invasive, long-term, multisite recording of electrical signal patterns of primary neuronal networks. Said MEA-neurochip technology enables the characterization of network activity pattern on the single-cell action-potential level and on the level of complex neuronal networks as the basic functional units. This can also be used as a test system for investigating neuro-physiological properties of compounds. Despite the complexity, the neurophysiological action profiles of neuroactive compounds are sensitive and selective as well as robust and stable, allowing a precise pharmacological “fingerprinting” and the creation of a database of information on well-characterized neuroactive substances. The multiparametric description of the activity pattern changes caused by treatment of a brain-region-specific neuronal network is a sophisticated approach to quantify the complex effects of neuroactive agents, of unknown compounds, and of complex mixtures such as biological extracts. Correlation with well-known neuroactive substances and their specific pattern, available in specific databased, provides novel insights into the possible pharmacological and physiological mechanisms of modes of action of herbal preparations or isolated substances. […] The recorded electrical activity patterns were characterized by 200 features and their changes were statistically evaluated. […] Cultures were incubated at 37° C. in a 10% CO2 atmosphere until ready for use, which usually is four weeks to three months after seeding. […]

[2] = test system: murine frontal cortex networks; test: Pattern recognition and classification of MEA activity patterns against NeuroProof database (105 substances); type: cell-based, mice; settings: for % of data records classified as reference substance: AUC-V, all
Protocol: Afterwards, a further analysis was carried out through a pattern-recognition analysis and through comparison with NeuroProof database to determine relevant mechanisms involved in the frontal cortex activity pattern induced changes by each substance.
To clarify the mode of action of the test substance on the activity of cortical networks these experiments were further analyzed using methods of pattern recognition. For each stable concentration activity phase the 200 spike train parameters were normalized by the native reference activity.
Using a feature selection algorithm, on the basis of the reference substances, the 40 most descriptive parameters for all 200 spike train parameters were selected. The rankings of activity features using various score methods based on classification experiments and comparing their total correct predictions were calculated. In this manner, the best results for a MDL (minimal description length) modified algorithm were obtained. A training data set with these 40 spike train parameters was established in the form of data records from the reference substances. An artificial neuronal network, multi layer feed forward network and back propagation algorithm without hidden units was then trained. The respective data records of the four substances were all subsequently classified. A classification against 105 substances in the database was carried out.

TNFα = test: Ex vivo TNFα secretion in LPS-stimulated human whole blood; type: cell-based; settings: ex vivo study, statement in words
Protocol: TNF alpha secretion [pg/ml] after co-incubation with LPS and Perilla extract of different concentration (1 μg/ml, 2.5 μg/ml and 50 μg/ml) against 450 μg/ml a benchmark blend, containing e.g. Boswellia extract, Omega 3 fatty acids, ALA and Curcumin. This study investigated the efficacy of Perilla extract comprising vicenin 2 to contribute to reduce TNFα levels. The study was designed as an ex vivo study, where human whole blood samples were treated with LPS, a bacterial blend, to stimulate inflammation which leads to an increase of the cytokine TNFα. Furthermore, the effect to reduce TNFα by Perilla extract was measured in comparison to a negative and positive control.

O=c1cc(-c2ccc(O)cc2)oc2c([C@@H]3O[C@H](CO)[C@@H](O)[C@H](O)[C@H]3O)c(O)c([C@@H]3O[C@H](CO)[C@@H](O)[C@H](O)[C@H]3O)c(O)c12 [vicenin 2, 5,7-Dihydroxy-2-(4-hydroxyphenyl)-6,8-bis[(2S,3R,4R,5S,6R)-3,4,5-trihydroxy-6 (hydroxymethyl)oxan-2-yl]chromen-4-one]
EC50 ([1]; Mus musculus, spike rate, frontal cortex networks in vitro, 9 accumulating concentrations, read-out: EC50 of decrease of the cortical network activity): 0.002 ng/mL (≈ 0.00336 nM) | effects on burst structure and oscillatory behaviour of the network ([1]; cortical network activity pattern): no affects on the burst structure, however on the oscillatory behaviour of the network | maximum decrease to % of the native activity ([1]; cortical network activity, native activity = 100%): 80% | % of data records classified as reference substance ([2]; classified as Amisulpride): 15% | % of data records classified as reference substance ([2]; classified as Atropinemethylbromide): 12% | % of data records classified as reference substance ([2]; classified as DPDPE): 11% | % of data records classified as reference substance ([2]; classified as Enkephalin): 14% | % of data records classified as reference substance ([2]; classified as Eserine): 15% | % of data records classified as reference substance ([2]; classified as Indatraline): 12% | % of data records classified as reference substance ([2]; classified as Modafinil): 12% | % of data records classified as reference substance ([2]; classified as Nicotine): 12% | % of data records classified as reference substance ([2]; classified as Olanzapine): 17% | % of data records classified as reference substance ([2]; classified as Sodium dodecyl sulfate): 12% | activity identified by the classification ([2]; classification against reference substances (Amisulpride, Muscimol, Enkephalin)): sedative and anxiolytic activity; also recorded: enkephalin-like activity | electrophysiological multi-channel recording pattern compared with positive controls ([2]; similarity to reference substances, in words): comparable with the pattern of the positive control eserine and nicotine; also recorded: comparable with the pattern of the positive control of carboxolone; also recorded: effects similar to amisulpride | anti-inflammatory effects (TNFα): anti-inflammatory effects

— patent US20140322198A1, “COMPOSITION COMPRISING VICENIN-2 HAVING A BENEFICIAL EFFECT ON NEUROLOGICAL AND/OR COGNITIVE FUNCTION” (priority 2011, published 2014)
